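Briefly, cells in 96-well plates were exposed to five compound concentrations for 48 h, and endpoints were estimated by linear interpolation. GI50 marks 50% less growth. At the TGI there is no net growth.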
What was measured:
Experiment in all cases: inhibition of tumour cell growth, NCI panel, 48 h
MALME-3M melanoma = system: MALME-3M melanoma
SR leukemia = system: SR leukemia
HCC-2998 colon = system: HCC-2998 colon
EKVX NSCLC = system: EKVX NSCLC
HL-60(TB) leukemia = system: HL-60(TB) leukemia
MOLT-4 leukemia = system: MOLT-4 leukemia
OVCAR-8 ovarian = system: OVCAR-8 ovarian
HOP-92 NSCLC = system: HOP-92 NSCLC
UACC-62 melanoma = system: UACC-62 melanoma
786-0 renal = system: 786-0 renal

Structure (SMILES)	TGI (MALME-3M melanoma)	TGI (SR leukemia)	TGI (HCC-2998 colon)	TGI (EKVX NSCLC)	TGI (HL-60(TB) leukemia)	TGI (MOLT-4 leukemia)	TGI (OVCAR-8 ovarian)	TGI (HOP-92 NSCLC)	TGI (UACC-62 melanoma)	TGI (786-0 renal)	GI50 (MALME-3M melanoma)	GI50 (SR leukemia)	GI50 (HCC-2998 colon)	GI50 (HL-60(TB) leukemia)	GI50 (MOLT-4 leukemia)	GI50 (OVCAR-8 ovarian)	GI50 (HOP-92 NSCLC)	GI50 (UACC-62 melanoma)	GI50 (786-0 renal)	GI50 (EKVX NSCLC)
Cc1cc2c3ccccc3n(C)c2c2c1C(=O)C=CC2=O	45.7 µM	38.9 µM	39.8 µM	19 µM	> 68 µM	46.3 µM	62.7 µM	25 µM	32.4 µM	13.4 µM	–	–	–	–	–	–	–	–	–	–
Fc1ccc2[nH]c3c(NCCCN4CCOCC4)ncnc3c2c1	89.1 µM	> 100 µM	> 100 µM	–	> 100 µM	> 100 µM	> 100 µM	84.1 µM	40.4 µM	> 100 µM	27.4 µM	28.8 µM	61.4 µM	51.9 µM	50.7 µM	66.8 µM	13.5 µM	17.5 µM	> 100 µM	–
CC[C@H](CC#N)OC(=O)N[C@@H](C)c1cccc(NC(=O)Nc2ccc(-c3cnco3)c(OC)c2)c1	31.2 µM	4.3 µM	51.6 µM	–	38.5 µM	13.8 µM	23.5 µM	44.7 µM	24.5 µM	> 93 µM	0.161 µM	0.0289 µM	0.142 µM	0.184 µM	0.0403 µM	0.0612 µM	2.46 µM	0.141 µM	0.188 µM	–
Clc1nc(Cl)c2c(ncn2C/C=C\Cn2cnc3c(Cl)nc(Cl)nc32)n1	4.2 µM	0.813 µM	3.05 µM	3.5 µM	> 100 µM	3.25 µM	4.37 µM	3.58 µM	4.09 µM	10.5 µM	2.22 µM	0.218 µM	1.5 µM	1.85 µM	1.42 µM	1.2 µM	1.89 µM	1.83 µM	2.93 µM	1.85 µM
CO/N=C(\C)c1ccc(Nc2cc(-c3ccccc3)nc3c(O)cccc23)cc1	–	34.7 µM	37.1 µM	41.7 µM	> 100 µM	–	33.9 µM	33.7 µM	28.8 µM	35.2 µM	–	5.51 µM	22.1 µM	48.4 µM	–	13.6 µM	17.5 µM	14.6 µM	16.3 µM	15.9 µM
CC(C)NC(=O)OCCS(=O)c1c(Cl)c(Cl)nn1C (centres undefined)	–	> 100 µM	–	> 100 µM	> 100 µM	> 100 µM	–	–	67.7 µM	72.6 µM	–	–	–	–	–	–	–	–	–	–
COc1ccc2oc3cccc(NCCN(C)C)c3c(=O)c2c1	29.2 µM	27.1 µM	21.9 µM	29.2 µM	27.6 µM	12.7 µM	23.7 µM	27.9 µM	26.6 µM	23.5 µM	–	–	–	–	–	–	–	–	–	–
Oc1ccc(CCCCCCc2ccc(O)cc2)cc1	29.6 µM	> 100 µM	23.2 µM	26.7 µM	18.7 µM	27.9 µM	20.2 µM	20.5 µM	15.3 µM	15.1 µM	13.3 µM	6.15 µM	11 µM	0.839 µM	0.566 µM	5.18 µM	6.99 µM	4.24 µM	3.65 µM	10.3 µM
CCCCCCCCCCCC[n+]1ccc(CCCCCCCCC)cc1	–	4.55 µM	–	–	1.83 µM	–	–	0.944 µM	1.73 µM	3.07 µM	–	1.47 µM	–	0.362 µM	–	–	0.0968 µM	0.465 µM	1.38 µM	–
Nc1cc(N)c(N)cc1N	3.45 µM	7.66 µM	27.9 µM	8.02 µM	6.02 µM	28.6 µM	12.3 µM	27.2 µM	2.97 µM	4.99 µM	1.79 µM	2.56 µM	13.4 µM	2.17 µM	3.14 µM	3.15 µM	12 µM	1.55 µM	2.27 µM	2.7 µM
CCC12CCCC(=O)N1C(CO)C(c1ccccc1)O2 (centres undefined)	> 100 µM	> 100 µM	–	> 100 µM	–	–	> 100 µM	> 100 µM	> 100 µM	> 100 µM	–	–	–	–	–	–	–	–	–	–
C=C(C)C(=O)O[C@H]1[C@H]2[C@H](OC(=O)[C@H]2C)[C@H](O)[C@@H](C)[C@@H]2C=CC(=O)[C@]21C	5.54 µM	5.39 µM	5.72 µM	14.8 µM	2.86 µM	7.52 µM	4.07 µM	8.89 µM	3.84 µM	5.21 µM	–	–	–	–	–	–	–	–	–	–
N#CC(C(=O)C(=O)NCCCNC(=O)C(=O)C(C#N)c1ccccc1)c1ccccc1 (centres undefined)	> 100 µM	> 100 µM	> 100 µM	> 100 µM	> 100 µM	> 100 µM	> 100 µM	> 100 µM	> 100 µM	> 100 µM	–	–	–	–	–	–	–	–	–	–
N[C@H](C(=O)O)[C@H](Cl)CC(=O)O	> 100 µM	–	> 100 µM	> 100 µM	> 100 µM	> 100 µM	> 100 µM	> 100 µM	> 100 µM	> 100 µM	–	–	–	–	–	–	–	–	–	–
CC12CCC(=O)C=C1CCC1C2C(O)CC2(C)C(c3csc(N)n3)CCC12 (centres undefined)	> 100 µM	> 100 µM	> 100 µM	> 100 µM	–	> 100 µM	> 100 µM	> 100 µM	> 100 µM	> 100 µM	–	–	–	–	–	–	–	–	–	–
CCCCn1cnc2c(SC)ncnc21	> 100 µM	94.4 µM	> 100 µM	> 100 µM	–	> 100 µM	> 100 µM	> 100 µM	> 100 µM	> 100 µM	–	–	–	–	–	–	–	–	–	–
CC(=O)c1cc([N+](=O)[O-])ccc1OCC(=O)O	> 100 µM	–	> 100 µM	> 100 µM	> 100 µM	> 100 µM	> 100 µM	> 100 µM	> 100 µM	> 100 µM	–	–	–	–	–	–	–	–	–	–
O=C1C(Cl)=C(Nc2cccc(O)c2)C(=O)N1c1cc(Cl)c(Cl)cc1Cl	23.4 µM	59.7 µM	34.8 µM	73.7 µM	–	37.2 µM	75.5 µM	26.2 µM	32.5 µM	32.7 µM	7.29 µM	10.3 µM	19.1 µM	–	12.7 µM	24 µM	12.5 µM	17.2 µM	16.7 µM	23 µM
